Laboratory results published in ChEMBL document CHEMBL4251561, “1,4-Naphthoquinones potently inhibiting P2X7 receptor activity” (Eur J Med Chem, 2018).
In brackets after ≈: the same amount, converted by molar mass. Activity calls are given as the source filed them. The rule behind the calls is not given here.

Legend:
Peritoneal macrophage [1] = experiment: Antiinflammatory activity in IFNgamma-differentiated Swiss Webster mouse peritoneal macrophages assessed as inhibition of LPS-induced IL-1beta release at 500 nM preincubated for 15 mins followed by LPS challenge measured after 30 mins by sandwich ELISA; type: functional, cell-based
[2] = Kinetic solubility in pH 2 hydrochloride buffer; type: physicochemical; conditions: read-out: Kinetic_solubility
[3] = Safety index, ratio of test compound CC50 to BGG CC50 for Swiss Webster mouse peritoneal macrophages by LDH release assay; type: ADME, cell-based, Peritoneal macrophage
[4] = Apparent permeability across apical to basolateral side in human Caco2 cells at 100 uM after 60 mins by lucifer yellow fluorescence-based assay; type: ADME, cell-based; conditions: Caco-2
[5] = Kinetic solubility in pH 7.4 phosphate buffer; type: physicochemical; conditions: read-out: Kinetic_solubility
P2X7R = experiment: Selectivity index, ratio of CC50 for Swiss Webster mouse peritoneal macrophages to IC50 for antagonist activity at P2X7R in Swiss Webster mouse peritoneal macrophages; type: toxicity; conditions: read-out: Ratio CC50/IC50
[6] = biological target: T1, P2X purinoceptor 7 (Mus musculus) (UniProt Q9Z1M0); experiment: Antagonist activity at P2X7R in Swiss Webster mouse peritoneal macrophages assessed as inhibition of ionic current amplitude at 500 nM incubated for 300 secs in presence of ATP by patch clamp method
T1 sequence (whole entry): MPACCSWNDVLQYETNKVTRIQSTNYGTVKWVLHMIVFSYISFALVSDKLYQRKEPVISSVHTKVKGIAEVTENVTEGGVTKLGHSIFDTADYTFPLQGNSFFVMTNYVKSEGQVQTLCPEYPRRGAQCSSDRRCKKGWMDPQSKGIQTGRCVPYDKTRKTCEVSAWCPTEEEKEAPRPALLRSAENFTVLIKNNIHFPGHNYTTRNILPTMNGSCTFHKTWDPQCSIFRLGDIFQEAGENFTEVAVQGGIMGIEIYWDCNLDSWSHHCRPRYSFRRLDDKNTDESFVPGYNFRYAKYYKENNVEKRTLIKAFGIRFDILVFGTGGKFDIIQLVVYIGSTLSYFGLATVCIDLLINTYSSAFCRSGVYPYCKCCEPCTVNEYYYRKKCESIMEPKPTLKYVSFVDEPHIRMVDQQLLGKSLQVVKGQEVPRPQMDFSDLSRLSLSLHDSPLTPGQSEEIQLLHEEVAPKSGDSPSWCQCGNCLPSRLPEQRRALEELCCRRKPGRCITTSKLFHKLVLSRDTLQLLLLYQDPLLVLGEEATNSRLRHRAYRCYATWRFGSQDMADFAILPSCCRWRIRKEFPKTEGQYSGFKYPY

[7] = biological target: T1, P2X purinoceptor 7 (Mus musculus); experiment: (§1) Antagonist activity at P2X7R in Swiss Webster mouse peritoneal macrophages assessed as inhibition of ATP-induced propidium iodide uptake preincubated for 10 mins followed by ATP induction measured after 25 mins by fluorescence assay
P2X purinoceptor 7 [8] = biological target: T2, P2X purinoceptor 7 (Mus musculus, UniProt Q9Z1M0); experiment: as §1
T2 sequence (Q9Z1M0 whole entry): T1 sequence (whole entry)

[9] = Safety index, ratio of test compound CC50 to A740003 CC50 for Swiss Webster mouse peritoneal macrophages by LDH release assay; type: ADME, cell-based, Peritoneal macrophage
[10] = Kinetic solubility in pH 10 sodium hydroxide buffer; type: physicochemical; conditions: read-out: Kinetic_solubility
[11] = Intrinsic clearance in human liver microsomes assessed per mg of protein at 1 uM preincubated for 45 mins followed by NADPH addition; type: ADME, microsome; conditions: read-out: CLH
Peritoneal macrophage [12] = experiment: Antiinflammatory activity in LPS/IFNgamma-differentiated Swiss Webster mouse peritoneal macrophages assessed as inhibition of ATP-induced IL-1beta release preincubated for 15 mins followed by ATP/LPS challenge measured after 30 mins by sandwich ELISA; type: functional, cell-based
[13] = Octanol-PBS distribution co-efficient, log D of the compound at 25 mM at pH 7.4 after 2 hrs by shake flask method; type: physicochemical
[14] = Cytotoxicity against Swiss Webster mouse peritoneal macrophages by LDH release assay; type: cell-based, Peritoneal macrophage
[15] = Apparent permeability across apical to basolateral side in human Caco2 cells at 100 uM after 60 mins by lucifer yellow fluorescence-based assay relative to propranolol; type: ADME, cell-based; conditions: caco-2, 1 h
Mus musculus [16] = experiment: Antiinflammatory activity in ip dosed Swiss Webster mouse assessed as inhibition of carrageenan-induced paw edema preincubated for 30 mins followed by carrageenan challenge measured after 60 mins by plethysmometer; type: functional, organism-based
[17] = Intrinsic clearance in mouse liver microsomes assessed per mg of protein at 1 uM preincubated for 45 mins followed by NADPH addition; type: ADME, microsome; conditions: read-out: CLH
Peritoneal macrophage [18] = experiment: Cytotoxicity against Swiss Webster mouse peritoneal macrophages at 100 uM after 72 hrs by resazurin reduction assay; type: cell-based
P2X purinoceptor 7 [19] = biological target: T3, P2X purinoceptor 7 (Homo sapiens, UniProt Q99572); experiment: Antagonist activity at human P2X7R expressed in HEK293 cells assessed as inhibition of ATP-induced […] uptake preincubated for 10 mins followed by ATP induction measured after 25 mins by fluorescence assay; type: cell-based
T3 sequence (Q99572 whole entry): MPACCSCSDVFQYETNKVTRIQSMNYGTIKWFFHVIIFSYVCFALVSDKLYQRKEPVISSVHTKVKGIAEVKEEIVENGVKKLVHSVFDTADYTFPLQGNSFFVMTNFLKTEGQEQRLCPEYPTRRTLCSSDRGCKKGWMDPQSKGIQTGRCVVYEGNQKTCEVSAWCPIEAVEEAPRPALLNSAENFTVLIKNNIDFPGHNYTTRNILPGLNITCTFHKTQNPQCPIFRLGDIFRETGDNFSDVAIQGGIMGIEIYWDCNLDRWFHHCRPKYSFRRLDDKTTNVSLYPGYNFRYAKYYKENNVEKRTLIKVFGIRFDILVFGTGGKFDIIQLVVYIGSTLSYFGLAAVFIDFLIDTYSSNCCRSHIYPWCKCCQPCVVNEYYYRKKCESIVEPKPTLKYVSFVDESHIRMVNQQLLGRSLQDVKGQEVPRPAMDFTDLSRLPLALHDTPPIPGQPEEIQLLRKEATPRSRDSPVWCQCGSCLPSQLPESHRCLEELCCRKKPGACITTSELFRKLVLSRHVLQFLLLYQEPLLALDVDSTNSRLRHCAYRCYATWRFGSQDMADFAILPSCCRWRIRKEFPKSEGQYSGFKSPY

[20] = Kinetic solubility in pH 4 citrate buffer; type: physicochemical; conditions: read-out: Kinetic_solubility
THP-1 = experiment: Antiinflammatory activity in LPS/IFNgamma-differentiated human THP1 cells assessed as inhibition of ATP-induced IL-1beta release after 30 mins by ELISA; type: functional, cell-based; conditions: THP-1, 0.5 h
Mus musculus [21] = experiment: Antiinflammatory activity in Swiss Webster mouse assessed as inhibition of carrageenan-induced paw edema at 10 mg/kg, ip preincubated for 30 mins followed by carrageenan challenge measured after 60 mins by plethysmometer; type: functional, organism-based

SMILES	selectivity ratio (P2X7R)	IC50 (P2X purinoceptor 7 [8]) [µM]	IC50 (Peritoneal macrophage [12]) [nM]	CC50 [14] [µM]	Activity (Peritoneal macrophage [18])	IC50 (P2X purinoceptor 7 [19]) [nM]	IC50 (THP-1) [nM]	other results
O=C1C(O)=C(I)C(=O)c2ccccc21	50600	0.0484	48.9	2020	Non-Toxic	71.2	40.2	inhibition (Peritoneal macrophage [1]): inactive; solubility kinetic [2]: 300 µM (≈ 90 µg/mL); selectivity ratio [3]: 10 to 20; Papp A→B at 1 h, 100 µM [4]: 54.2 ×10⁻⁶ cm/s; solubility kinetic [5]: < 300 µM; inhibition [6]: Active; inhibition [7]: Dose-dependent effect; selectivity ratio [9]: 3 to 6; solubility kinetic [10]: 300 µM (≈ 90 µg/mL); microsomal CLint at 1 µM [11]: 31.1 µL/min/mg; logD at 2 h, 25000 µM [13]: -0.11; Papp [15]: <= 50%; inhibition (Mus musculus [16]): Dose-dependent effect; microsomal CLint at 1 µM [17]: 24.6 µL/min/mg; solubility kinetic [20]: 300 µM (≈ 90 µg/mL)
O=C1C(O)=C(c2cccc(F)c2)C(=O)c2ccccc21	–	33.5	–	–	Non-Toxic	–	–	–
O=C1C(O)=C(c2ccccc2)C(=O)c2ccccc21	86400	0.0231	11.2	1990	Non-Toxic	22.4	9.8	inhibition (Peritoneal macrophage [1]): inactive; solubility kinetic [2]: < 500 µM; selectivity ratio [3]: 10 to 20; Papp A→B at 1 h, 100 µM [4]: 61.1 ×10⁻⁶ cm/s; solubility kinetic [5]: < 500 µM; inhibition [6]: Active; inhibition [7]: Dose-dependent effect; selectivity ratio [9]: 3 to 6; solubility kinetic [10]: < 500 µM; microsomal CLint at 1 µM [11]: 36.8 µL/min/mg; logD at 2 h, 25000 µM [13]: -0.39; Papp [15]: 60%; inhibition (Mus musculus [16]): Dose-dependent effect; microsomal CLint at 1 µM [17]: 27.7 µL/min/mg; solubility kinetic [20]: < 500 µM
O=C1C=C(O)C(=O)c2ccccc21 [LAWSONE]	–	75.5	–	–	Toxic	–	–	–
COc1ccc(C2=C(O)C(=O)c3ccccc3C2=O)cc1	–	80.1	–	–	Non-Toxic	–	–	–
COc1ccc(CC(=O)NC(N/C(=N/C#N)Nc2cccc3ncccc23)C(C)(C)C)cc1OC (stereo unspecified)	362	0.897	723	325	–	109	689	inhibition [6]: Active
O=C1C(O)=C(Br)C(=O)c2ccccc21	1180	0.712	677	844	Non-Toxic	414	633	inhibition (Peritoneal macrophage [1]): inactive; selectivity ratio [3]: 10 to 20; inhibition [7]: Dose-dependent effect; selectivity ratio [9]: 3 to 6
Cc1ccc(C2=C(O)C(=O)c3ccccc3C2=O)cc1	–	81.3	–	–	Non-Toxic	–	–	–
COc1cccc(C2=C(O)C(=O)c3ccccc3C2=O)c1	–	3.17	–	–	Non-Toxic	–	–	–
O=C(O)Cc1ccccc1Nc1c(Cl)cccc1Cl	–	–	–	–	–	–	–	inhibition (Mus musculus [21]): Active
CCOc1ccc(Nc2ccc(/C(=C3C=C/C(=[N+](/CC)Cc4cccc(S(=O)(=O)[O-])c4)C=C/3C)c3ccc(N(CC)Cc4cccc(S(=O)(=O)O)c4)cc3C)cc2)cc1 [BRILLIANT BLUE G]	5.73	15.2	19800	87.3	–	536	19300	–
N#Cc1ccc(C2=C(O)C(=O)c3ccccc3C2=O)cc1	–	45.8	–	–	Non-Toxic	–	–	–
